How the values were obtained:
[1] = Emanation (release) rate of active agent from three-layer substrate 250 by weight loss over 40 days (Example 1, FIG. 13); format: physicochemical; settings: substrate 250, approx. 30 cm^2, dosed with approx. 75 mg active agent
[2] = Emanation rate of transfluthrin from dispensing device 200 with substrate 250 in a sealed chamber over 75 days (Example 2, FIGS. 15A-15C); format: physicochemical; settings: for constant emanation rate: dose about 2400 mg
Method: In connection with the examples herein, the emanation rates and the amount of active agent, e.g., an amount of transfluthrin, remaining in the substrate of the examples herein were measured by analyzing the weight loss of a particular substrate over time. More particularly, the amount of active agent remaining within a particular substrate may be calculated by first measuring the substrate 250 prior to dosing the substrate 250 with the active agent (or volatile material) and then subtracting that value from the weight of the substrate 250 at any given time after dosing. For example, with reference to Example 1, an initial weight of the substrate 250 was measured, the substrate 250 was dosed with an active agent (i.e., transfluthrin or metofluthrin), and a weight of the substrate 250 was measured multiple times after initial dosage and after emanation of the active agent into the ambient environment. The initial weight of the substrate 250 was then subtracted from a weight of the substrate 250 after initial dosage and this value indicated the remaining active agent within the substrate 250. Further, after determining the remaining active agent within the substrate 250, the amount of active agent (or volatile material) emanated to the ambient environment may also be calculated by subtracting the amount of active agent remaining in the substrate 250 from the initial dosage amount of the active agent. All weight measurements can be performed on an analytical scale. Further, the examples herein were conducted in a closed environment, such as a sealed chamber, having a controlled airflow rate.
In this example, the substrate 250 includes three layers, such as the first layer 252, the second layer 254, and the third layer 256. Further, in this embodiment, the first layer 252 is a woven material having a honeycomb weave pattern, a pore size of 3 mm and a thickness of 0.3 mm; the second layer 254 is a fibrous material constructed from polyester and the substrate 250 has a surface density of about 340 g/m^2; and the third layer 256 is a woven material having a honeycomb weave pattern, a pore size of 3 mm and a thickness of 0.3 mm. The substrate 250 was dosed with about 2400 mg of transfluthrin and the concentration of the transfluthrin within the substrate 250 at different locations in a sealed chamber was measured over a period of 75 days. During this trial, the substrate 250 was exposed to an airflow of about 4.8 meters/minute.

[3] = first location within sealed chamber (FIG. 15A)
[4] = second location within sealed chamber (FIG. 15B)
[5] = third location within sealed chamber (FIG. 15C)

Structure (SMILES)	constant linear release (emanation) rate [1]	time over which the substrate emanated the volatile material at constant linear rate [1]	period of emanation at constant, linear rate, from linear regression lines ([2]; extrapolated from the linear regression lines of FIGS. 15A-15C)	period of constant emanation [2, 3]	constant emanation rate [2, 3]	period of constant emanation [2, 4]	constant emanation rate [2, 4]	period of constant emanation [2, 5]	constant emanation rate [2, 5]
C/C=C/C1C(C(=O)OCc2c(F)c(F)c(COC)c(F)c2F)C1(C)C (centres unmarked) [metofluthrin]	about 1.9 mg/day	20 days							
CC1(C)[C@H](C=C(Cl)Cl)[C@H]1C(=O)OCc1c(F)c(F)cc(F)c1F [transfluthrin]	about 1.5 mg/day	approximately 36 days	exceeding one year	greater than 70 days	about 4 mg/day	greater than 70 days	about 6 mg/day	greater than 70 days	about 4 mg/day

— patent US20240138404A1, “DISPENSER AND METHOD OF USE THEREOF” (S.C. JOHNSON & SON, INC., priority 2019, published 2024)
